Values quoted from earlier work as cited in PMC7584476, “Safety and efficacy of BAY1436032 in IDH1-mutant AML: phase I study results” (Leukemia, 2020).

System: wtIDH1
Conditions: preclinical; cited from earlier work

C[C@H]1C[C@@H](n2c(Nc3ccc(OC(F)(F)F)cc3)nc3cc(CCC(=O)O)ccc32)CC(C)(C)C1 [BAY1436032]
Activity against wtIDH1: little activity
